US20180273528A1 (LES LABORATOIRES SERVIER, priority 2015, published 2018)

Columns and labels:
[1] = target: T1, CDK9 (Homo sapiens, UniProt P50750); experiment: Kinase TR-FRET assay, CDK9; assay type: biochemical; conditions: full-length human kinase, 10 μM ATP
T1 construct: full-length human kinases from Carna Biosciences; purchased Carna Biosciences 04-110
Method in brief: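 Full-length human CDK9 (0.9 ng/μl) incubated 100 min at room temperature with 10 μM ATP, 100 nM ULight-MBP peptide and compound (0.1 nM–30 μM) in 50 mM HEPES pH 7.4, 1 mM EGTA, 10 mM MgCl2, 2 mM DTT, 0.01% Tween20. Stopped with 10 mM EDTA, then 1 nM Eu-anti-phospho-Thr232 MBP antibody added for 1 h. TR-FRET read at 665/620 nm with 340 nm excitation.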

[2] = target: T2, DYRK1A (Homo sapiens, UniProt Q13627); experiment: Cellular DYRK1 autophosphorylation assay in U2-OS cells; assay type: cell-based; parameters: full-length, wild-type human DYRK1A (NM_001396) with an HA tag; expressed in transfected cells; host or cells: human U2-OS osteosarcoma cells, transient transfection of a pcDNA3.1 plasmid; conditions: U2-OS cells transfected with HA-tagged human DYRK1A, 5 hours exposure; read-out: IC50 (μM) P-Ser520-Dyrk1A -Cell assay
Method in brief: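 U2-OS cells treated with a compound concentration range for 5 h. Phospho-Ser520-DYRK1A measured by western blot densitometry or Mesoscale ELISA. IC50 from dose-response curves; for blots, ratio of phospho-Ser520 to total DYRK1A signal.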

[3] = target: T2, DYRK1A; experiment: Pharmacodynamic assay in RS4;11 tumor xenografts for inhibition of DYRK1A autophosphorylation; assay type: in vivo; parameters: tumors were excised and proteins were extracted in tissue lysis buffer; from tissue; host or cells: RS4;11 human leukemia xenograft tumors grown in female SCID mice; conditions: mouse, single oral administration, 2 h, RS4;11 tumors in SCID mice, read-out: phospho-Ser520-DYRK1A (% control at 2 h)
Protocol: For pharmacodynamics studies of inhibition of DYRK1A autophosphorylation, female SCID mice were injected subcutaneously with RS4; 11 human acute lymphoblastic leukemia cells. When tumors reached a size of 200-300 mm^3, mice were randomized into homogeneous groups of 3 and given a single oral administration of the compounds of the invention at doses of up to 100 mg/kg. […] The relative levels of phospho-Ser520-DYRK1A were assayed using western blotting. For this, lysates were diluted into Laemmli sample buffer (Bio-Rad) containing 5% v/v β-mercaptoethanol, heated for 5 min at 95° C., and resolved on Tris-glycine gels or NuPage Bis-Tris gels (Novex; Invitrogen). Biotinylated molecular weight standards (Cell Signaling Technology) were included in all gels. Proteins were transferred to nitrocellulose membranes (Hybond, ECL; Amersham), which were blocked in Tris-buffered saline/0.1% tween 20 (TBST) containing 5% milk, and probed at 4° C. overnight with anti-phospho-Ser520-DYRK1A antibody (Eurogentec SE6974-75; 0.23 μg/ml in 5% BSA) or anti DYRK1A antibody (Abnova H00001859; 0.5 μg/ml in 5% milk). Peroxidase-conjugated secondary antibodies were diluted into 5% milk and applied to membranes for 1 h at 20° C. Chemiluminescence detection was performed using the ECL plus western blotting detection kit (Amersham) and was recorded on ECL plus hyperfilm (Amersham). Blots were scanned using the Bio-Rad GS-800 calibrated densitometer and quantitative analysis of western blots was performed using TotalLab software (Amersham). The percentage inhibition of phospho-Ser520-DYRK1A as compared to the control tumors was calculated using the ratio between phospho-Ser520-DYRK1A and total DYRK1A signals at each dose.

T1 sequence (P50750 whole entry): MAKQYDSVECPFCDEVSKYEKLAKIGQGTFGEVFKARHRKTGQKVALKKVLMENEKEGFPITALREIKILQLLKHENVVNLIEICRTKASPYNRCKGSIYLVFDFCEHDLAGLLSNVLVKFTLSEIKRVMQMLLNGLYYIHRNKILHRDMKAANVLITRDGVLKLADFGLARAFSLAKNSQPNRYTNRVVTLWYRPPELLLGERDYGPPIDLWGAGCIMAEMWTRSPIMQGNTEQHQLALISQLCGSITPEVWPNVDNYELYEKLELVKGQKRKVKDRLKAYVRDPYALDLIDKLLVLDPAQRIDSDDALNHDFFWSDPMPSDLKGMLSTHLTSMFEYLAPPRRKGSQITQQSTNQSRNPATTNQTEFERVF
T1 sequence (O60563 whole entry partner): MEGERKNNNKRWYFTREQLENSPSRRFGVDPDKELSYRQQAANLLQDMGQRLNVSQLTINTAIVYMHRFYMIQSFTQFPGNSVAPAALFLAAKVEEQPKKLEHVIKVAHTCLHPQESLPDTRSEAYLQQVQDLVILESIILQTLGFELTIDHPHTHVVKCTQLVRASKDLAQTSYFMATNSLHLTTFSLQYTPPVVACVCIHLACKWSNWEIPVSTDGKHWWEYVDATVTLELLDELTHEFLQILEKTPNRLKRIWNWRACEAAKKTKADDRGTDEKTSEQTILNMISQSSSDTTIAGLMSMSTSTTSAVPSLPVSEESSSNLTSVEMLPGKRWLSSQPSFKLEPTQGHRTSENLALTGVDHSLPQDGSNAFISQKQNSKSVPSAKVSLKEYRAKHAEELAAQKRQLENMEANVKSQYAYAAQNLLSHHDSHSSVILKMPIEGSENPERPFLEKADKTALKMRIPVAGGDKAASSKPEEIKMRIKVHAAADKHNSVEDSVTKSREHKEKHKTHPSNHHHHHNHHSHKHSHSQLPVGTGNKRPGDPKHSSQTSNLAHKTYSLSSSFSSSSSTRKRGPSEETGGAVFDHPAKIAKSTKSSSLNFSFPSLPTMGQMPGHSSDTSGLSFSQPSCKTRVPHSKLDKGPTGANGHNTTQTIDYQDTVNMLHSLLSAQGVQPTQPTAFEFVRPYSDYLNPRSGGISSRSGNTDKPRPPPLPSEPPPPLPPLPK

| Compound | IC50 [1] | IC50 [2] | response vs control in vivo at 9 mg/kg ([3]; dose 9 mg/kg) | response vs control in vivo at 3 mg/kg [3] |
| --- | --- | --- | --- | --- |
| Cc1nc2ccc(-c3cc(N)nc(N)c3)nc2n1C1CC1 [Example 9, 4-(3-cyclopropyl-2-methyl-3H-imidazo[4,5-b]pyridin-5-yl)pyridine-2,6-diamine] | 2.15 µM | 0.09 µM |  | 44% |
| Cc1nc2ccc(-c3cc(N)nc(N)c3)nc2n1CCCC(F)(F)F [Example 71, 4-[2-methyl-3-(4,4,4-trifluorobutyl)-3H-imidazo[4,5-b]pyridin-5-yl]pyridine-2,6-diamine] | 1.41 µM | 0.047 µM |  | 33% |
| Cc1nc2ccc(-c3cc(N)nc(N)c3)nc2n1C1CC(F)(F)C1 [Example 101, 4-[3-(3,3-difluorocyclobutyl)-2-methyl-3H-imidazo[4,5-b]pyridin-5-yl]pyridine-2,6-diamine] | 1.26 µM | 0.006 µM |  | 25% |
| CCn1c(C)nc2ccc(-c3cc(N)nc(N)c3)nc21 [Example 154, 4-(3-ethyl-2-methyl-3H-imidazo[4,5-b]pyridin-5-yl)pyridine-2,6-diamine] | 3.39 µM | 0.02 µM |  | 28% |

Next, values leading:

| IC50 [1] | IC50 [2] | response vs control in vivo at 9 mg/kg ([3]; dose 9 mg/kg) | response vs control in vivo at 3 mg/kg [3] | Compound |
| --- | --- | --- | --- | --- |
| > 3 µM | 0.073 µM | 46% |  | Cc1nc2ccc(-c3cc(N)nc(N)c3)nc2n1C[C@@H](C)Oc1ccccc1 (single isomer, unassigned) [Example 106] |
| 2.94 µM | 0.045 µM |  | 35% | Cc1nc2ccc(-c3cc(N)nc(N)c3)nc2n1Cc1ccoc1 [Example 42, 4-[3-(furan-3-ylmethyl)-2-methyl-3H-imidazo[4,5-b]pyridin-5-yl]pyridine-2,6-diamine] |
| 0.666 µM | 0.014 µM |  | 41% | Cc1nc2ccc(-c3cc(N)nc(N)c3)nc2n1C1CC(F)C1 (stereo not drawn) [Example 103, 4-[3-(3-fluorocyclobutyl)-2-methyl-3H-imidazo[4,5-b]pyridin-5-yl]pyridine-2,6-diamine] |
